# Assay: Solubility of select steviol glycosides at room temperature
# Format: physicochemical
# Settings: in water, some species may not be completely pure
# Text: Pure steviol glycosides are sparingly soluble in water. Solubility measurements may reflect the true thermodynamic solubility or a short-term kinetic solubility. The kinetic solubility value occurs when an isomeric form has been prepared that is not thermodynamically stable at long time scales yet has higher solubility at short times scales. A few steviol glycoside species have a free carboxylic acid group. These species tend to have higher solubility. Nevertheless, steviol glycosides are generally poorly soluble in water, as shown in Table 3 (certain measurements are for species that may not be completely pure).
row,Compound,Solubility [% wt %]
1,"C=C1C[C@@]23CC[C@H]4[C@@](C)(CCC[C@@]4(C)C(=O)O[C@@H]4O[C@H](CO)[C@@H](O)[C@H](O)[C@H]4O)[C@@H]2CC[C@]1(O[C@@H]1O[C@H](CO)[C@@H](O)[C@H](O[C@@H]2O[C@H](CO)[C@@H](O)[C@H](O)[C@H]2O)[C@H]1O[C@@H]1O[C@H](CO)[C@@H](O)[C@H](O)[C@H]1O)C3 [Reb A anhydrous, rebaudioside A]",0.80
2,"C=C1C[C@@]23CC[C@H]4[C@@](C)(CCC[C@@]4(C)C(=O)O[C@@H]4O[C@H](CO)[C@@H](O)[C@H](O)[C@H]4O)[C@@H]2CC[C@]1(O[C@@H]1O[C@H](CO)[C@@H](O)[C@H](O[C@@H]2O[C@H](CO)[C@@H](O)[C@H](O)[C@H]2O)[C@H]1O[C@@H]1O[C@H](CO)[C@@H](O)[C@H](O)[C@H]1O)C3 [Reb A hydrate, rebaudioside A]",0.10
3,"C=C1C[C@@]23CC[C@H]4[C@@](C)(CCC[C@@]4(C)C(=O)O[C@@H]4O[C@H](CO)[C@@H](O)[C@H](O)[C@H]4O)[C@@H]2CC[C@]1(O[C@@H]1O[C@H](CO)[C@@H](O)[C@H](O[C@@H]2O[C@H](CO)[C@@H](O)[C@H](O)[C@H]2O)[C@H]1O[C@@H]1O[C@H](CO)[C@@H](O)[C@H](O)[C@H]1O)C3 [Reb A 97%, rebaudioside A]",0.80

# Results, then the compound that gave them:
row,Solubility [% wt %],Compound
1,0.46,"C=C1C[C@@]23CC[C@H]4[C@@](C)(CCC[C@@]4(C)C(=O)O[C@@H]4O[C@H](CO)[C@@H](O)[C@H](O)[C@H]4O)[C@@H]2CC[C@]1(O[C@@H]1O[C@H](CO)[C@@H](O)[C@H](O[C@@H]2O[C@H](CO)[C@@H](O)[C@H](O)[C@H]2O)[C@H]1O[C@@H]1O[C@H](CO)[C@@H](O)[C@H](O)[C@H]1O)C3 [Reb A, rebaudioside A]"
2,0.44,"C=C1C[C@@]23CC[C@H]4[C@@](C)(CCC[C@@]4(C)C(=O)O[C@@H]4O[C@H](CO)[C@@H](O)[C@H](O)[C@H]4O)[C@@H]2CC[C@]1(O[C@@H]1O[C@H](CO)[C@@H](O)[C@H](O)[C@H]1O[C@@H]1O[C@H](CO)[C@@H](O)[C@H](O)[C@H]1O)C3 [Stevioside, stevioside]"
3,0.20,rebaudioside C [Reb C]
4,0.10,"C=C1C[C@@]23CC[C@H]4[C@@](C)(CCC[C@@]4(C)C(=O)O[C@@H]4O[C@H](CO)[C@@H](O)[C@H](O)[C@H]4O[C@@H]4O[C@H](CO)[C@@H](O)[C@H](O)[C@H]4O)[C@@H]2CC[C@]1(O[C@@H]1O[C@H](CO)[C@@H](O)[C@H](O[C@@H]2O[C@H](CO)[C@@H](O)[C@H](O)[C@H]2O)[C@H]1O[C@@H]1O[C@H](CO)[C@@H](O)[C@H](O)[C@H]1O)C3 [Reb D, rebaudioside D]"
5,0.05,"C=C1C[C@@]23CC[C@H]4[C@@](C)(CCC[C@@]4(C)C(=O)O[C@@H]4O[C@H](CO)[C@@H](O)[C@H](O[C@@H]5O[C@H](CO)[C@@H](O)[C@H](O)[C@H]5O)[C@H]4O[C@@H]4O[C@H](CO)[C@@H](O)[C@H](O)[C@H]4O)[C@@H]2CC[C@]1(O[C@@H]1O[C@H](CO)[C@@H](O)[C@H](O[C@@H]2O[C@H](CO)[C@@H](O)[C@H](O)[C@H]2O)[C@H]1O[C@@H]1O[C@H](CO)[C@@H](O)[C@H](O)[C@H]1O)C3 [Reb M, rebaudioside M]"
